Test results taken from article PMC11489250, “Optimized methods for measuring competitive binding of chemical substances to thyroid hormone distributor proteins transthyretin and thyroxine binding globulin” (Archives of Toxicology, 2024).
Where two headings read alike, the source gives them in different places. Values belong to the compound of their own block, whether it stands above or below them.

What was measured:
TBG [1] = target: TBG; set-up: method as in Ren et al. [2016]; details: ref Ren et al. [2016], cited from earlier work
Recombinant TTR = target: Recombinant TTR; set-up: method as in Marchesini et al. [2006]; details: T4 100 nM, recombinant TTR 18.2 nM, 25 °C, 10 min, ref Marchesini et al. [2006], cited from earlier work
[2] = target: T1, thyroxine-binding globulin (TBG) (Homo sapiens, UniProt P05543); test: Competitive TBG-binding assay with FITC-T4 (fluorescence polarization readout); details: 37 °C, 15 min, preliminary temperature experiment (N = 2)
T1 construct: purchased Bio-rad Laboratories, Inc. (Veenendaal, The Netherlands)
T1 sequence (P05543 21-415): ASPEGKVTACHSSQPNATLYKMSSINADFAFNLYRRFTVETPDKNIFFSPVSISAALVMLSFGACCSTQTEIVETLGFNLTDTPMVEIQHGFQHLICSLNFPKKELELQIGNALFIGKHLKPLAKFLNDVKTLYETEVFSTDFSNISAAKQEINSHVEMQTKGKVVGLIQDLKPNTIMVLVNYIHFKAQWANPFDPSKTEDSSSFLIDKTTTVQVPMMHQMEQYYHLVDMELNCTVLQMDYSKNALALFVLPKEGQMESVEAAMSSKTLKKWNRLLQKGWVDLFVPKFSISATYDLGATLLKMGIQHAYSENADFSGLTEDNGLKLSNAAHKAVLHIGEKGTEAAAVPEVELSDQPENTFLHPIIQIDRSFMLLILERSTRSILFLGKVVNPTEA

TBG [3] = target: TBG; set-up: method as in Qi et al. [2011]; details: ref Qi et al. [2011]; read-out: TBG literature Ki; cited from earlier work
Human TTR [4] = target: T2, Human TTR (Homo sapiens, UniProt P02766); test: Optimized competitive TTR-binding assay with FITC-T4 (fluorescence intensity readout); details: for IC20: read-out: TTR IC20
T2 construct: Transthyretin (prealbumin, TTR) >95% from human plasma; purchased Sigma Aldrich (Zwijndrecht, The Netherlands); host or cells: human plasma
Method: All TTR-binding experiments were performed in black 96-well polystyrene nonbinding plates. Experimental wells and background wells were prepared in triplicate per plate. […] Fluorescence intensity (FI) was measured at λex = 485 ± 20 nm and λem = 528 ± 20 nm (CLARIOstar Plus microplate reader, BMG LABTECH).
To test the effect of the change in temperature and incubation time, a saturation experiment (N = 3, n = 3) was performed in Tris–HCl buffer (0.1 M Tris (Thermo Scientific, Rockford, USA), 0.1 M NaCl (Merck KGaA, Darmstadt, Germany), 1 mM EDTA (VWR International, B.V. Amsterdam, The Netherlands); pH 8.0). […] Two 96-well plates were prepared at the same time. After shaking for 5 min on a plate shaker, one prepared plate was incubated on ice (at 4 °C) and another plate was incubated at room temperature (22 °C). For both plates the fluorescence was measured at different time points: 5 min, 15 min, 60 min and 120 min.
First, 48 µL Tris–HCl buffer (pH 8.0) was pipetted to the wells, followed by 2 µL of the compound (in DMSO). […] Final solvent (DMSO) concentrations in all conditions amounted to 1%. All plates were shaken for 5 min on a plate shaker, followed by an incubation for 15 min at room temperature. The standard operation procedure (SOP) is provided in Supplementary Information file (Section 3).
Calculations of the ICX, Kd and Ki values of TTR-binding assays are described in the Supplementary Information file (Section 3).
3.7.5 The competitive TTR binding screening assay
3.7.8 Processing data to determine IC50 and calculate Ki value

TBG [5] = test system: TBG; set-up: method as in Marchesini et al. [2008]; details: T4-coated chips and TBG; ref Marchesini et al. [2008]; read-out: TBG IC50 (SPR biosensor); cited from earlier work
TBG [6] = target: TBG; set-up: method as in Cao et al. [2010]; details: ref Cao et al. [2010]; read-out: TBG literature Ki; cited from earlier work
TBG [7] = target: TBG; set-up: method as in Ren and Guo [2012]; details: ref Ren and Guo [2012]; read-out: TBG literature Ki; cited from earlier work
[8] = target: T1, thyroxine-binding globulin (TBG); test: Competitive TBG-binding assay with FITC-T4 (fluorescence polarization readout); details: for Ki / IC50 / IC20: RT
Method: Prepared plates were first shaken for 5 min and then incubated for 15 min at room temperature before being analysed by the microplate reader at FP mode (CLARIOstar Plus, BMG LABTECH).
Accordingly, dilution series of all compounds were prepared in DMSO. First, 24 µL Tris–HCl buffer was pipetted to the wells, followed by 1 µL of the compound stock solution. […] Solvent (DMSO) concentrations in all conditions were 1%. The plates were shaken for 5 min on a plate shaker, followed by an incubation for 15 min at room temperature.
The adjusted polarization was set to a reference value of 35 mP. The adjustment gain values ranged from 1900 to 2200. The plate layout of TBG-binding assay is provided in Supplementary Information file (Section 4).
For the competitive TBG-binding experiments, concentration–response curves were fitted:2 r=rmin+rmax-rmin/1+IC50/X^HillSlope with rmin and rmax being the minimum and maximum anisotropy values, respectively. X is the concentration of added competitor. Equations that were used for the calculation of the ICX and Ki values in the TTR-binding assays (Supplementary Information, Section 3) were also used to determine the ICX and Ki values in TBG-binding assays without any changes, respectively. The single Kd, IC20, IC50 and Ki were determined based on replicates (n) in each experiment, and then the average and confidence intervals were determined based on the Kd, IC20, IC50 and Ki values from sperate experiments (N).
Alternatively, another approach to determine ICX, Kd and Ki values based on a theoretical model of ligand–protein binding biochemistry was taken as described in detail in the Supplementary Information file (Section 5). For this approach, R was used to fit the model to the data. The results obtained from the two approaches were compared in Section 3.4.
S5.2 Ki and IC50 estimation

Human TTR [9] = target: T2, Human TTR; details: FITC-T4 110 nM, human TTR 30 nM, 4 °C, 2 h; ref Hamers et al. [2020]; read-out: TTR literature Ki; cited from earlier work
TTR = details: ref Ren et al. [2020]; cited from earlier work
TBG [10] = details: highest tested concentration 100 µM with 100 nM TBG and 50 nM FITC-T4; ref Ren et al. [2020]; cited from earlier work
[11] = 110 nM FITC-T4, 30 nM TTR, RT, 15 min, average [95% CI]
[12] = 5 nM FITC-T4, 10 nM TBG, 15 min, derived from IC20, descriptive model (Graphpad), average [95% CI], read-out: TBG Ki
[13] = 5 nM FITC-T4, 10 nM TBG, 15 min, descriptive model (Graphpad), average [95% CI]
[14] = 5 nM FITC-T4, 10 nM TBG, 15 min, descriptive model (Graphpad), average [95% CI], read-out: TBG IC20
[15] = 5 nM FITC-T4, 10 nM TBG, theoretical model in R, average [95% CI], read-out: TBG IC20, theoretical model
[16] = 5 nM FITC-T4, 10 nM TBG, theoretical model in R, average [95% CI], read-out: TBG Ki values, theoretical model
[17] = T4EQi = highest human blood concentration x T4-REPi

Compound: O=C(O)C(F)(F)C(F)(F)C(F)(F)C(F)(F)C(F)(F)C(F)(F)C(F)(F)C(F)(F)C(F)(F)C(F)(F)C(F)(F)C(F)(F)C(F)(F)F [PFTdA, perfluorotetradecanoic acid]
Ki (TBG [1]; read-out: TBG Ki): 26600 nM

Ki [2]: 2.6 nM
IC20 (Human TTR [4]; [11]): 25 nM
Ki [8, 12]: 2.5 nM
IC50 [8, 13]: 14.9 nM
IC20 [8, 14]: 9.2 nM
IC20 [8, 15]: 5.9 nM
Ki [8, 16]: 0.8 nM
Ki ([8]; 15 min, preliminary temperature experiment (N = 2), read-out: TBG Ki): 2.9 nM
Compound: N[C@@H](Cc1cc(I)c(Oc2cc(I)c(O)c(I)c2)c(I)c1)C(=O)O [T4, 3,3′,5,5′-tetraiodothyronine]
Kd (Recombinant TTR; read-out: Determined Kd value of ligand with TTR): 9.2 ± 1.2 nM
Ki (Recombinant TTR; read-out: TTR literature Ki): 13.7 ± 1.3 nM
Ki (TBG [3]): 2.2 nM
IC50 (TBG [5]): 17.2 nM
Ki (TBG [6]): 0.6 nM
Ki (TBG [1]; N.D means not detected, read-out: TBG literature Ki): 7 nM
Ki (TBG [7]): 17 nM

IC20 (Human TTR [4]; [11]): 12 nM
IC50 (Human TTR [4]; 110 nM FITC-T4, 30 nM TTR, RT, 15 min, average [95% CI], read-out: TTR IC50): 22 nM
Ki (Human TTR [4]; 110 nM FITC-T4, 30 nM TTR, RT, 15 min, derived from IC20, average [95% CI], read-out: TTR Ki): 12 nM
T4EQ concentration (TTR binding) (Human TTR [4]; [17]): 3.73 nM
Contribution to T4EQ concentration (TTR binding) (Human TTR [4]; mixture of highest human blood concentrations of five model compounds): 19.5%
Ki [8, 12]: 3760 nM
IC50 [8, 13]: 68100 nM
IC20 [8, 14]: 7300 nM
IC20 [8, 15]: 6420 nM
Ki [8, 16]: 3310 nM
T4EQ concentration (TBG binding) [8, 17]: 2 pM
Contribution to T4EQ concentration (TBG binding) ([8]; mixture of highest human blood concentrations of TBBPA, triclosan and BPA): 0.1%
Compound: CC(C)(c1cc(Br)c(O)c(Br)c1)c1cc(Br)c(O)c(Br)c1 [TBBPA]
Ki (Human TTR [9]): 17 nM
binding to TTR (in words) (TTR): binding of TBBPA to TTR
binding to TBG (in words) (TBG [10]): not to TBG

Compound: Oc1cc(Cl)ccc1Oc1ccc(Cl)cc1Cl [Triclosan, triclosan]
IC20 [8, 14]: 284 nM
IC20 [8, 15]: 293 nM
